Test results as given in patent US11110147B2, “Collagen hydrolysates as a beneficial prebiotic and their effect on joint inflammation and osteoarthritis” (ROUSSELOT B.V., priority 2017, dated 2021).

System: gut microbiome
Assay: Microbial 16S rDNA analysis of fecal samples
Format: in vivo, mice
Conditions: 38 mg/day hCol1 or glucosamine, FIG. 10C
Description: FIGS. 10A-10C: hCol1 supplementation induces significant change in the gut microbiome. Microbial rDNA analysis was performed on fecal samples collected from lean and obese mice supplemented with control Nutella, 38 mg/day hCol1, or glucosamine. […] FIG. 10A: Principal coordinate analysis of microbial abundance from obese control Nutella (1), obese glucosamine (2), obese hCol1 (3), lean hCol1 (4), lean glucosamine (5) and lean control Nutella (6) mice. […] FIGS. 15A-15G: hCol1 and hCol2 supplementation induces significant change in the gut microbiome and provides protective effects in post-traumatic osteoarthritis. (FIG. 15A) Microbial rDNA analysis was performed on fecal samples collected from chow fed mice supplemented with control Nutella, 38 mg/day hCol1, or 15 mg/day hCol2 for 4 weeks. Bars show relative microbial abundance in the indicated groups. Each bar represents an average of 3 mice. In the chow diet, hCol 1 and 2 tended to have similar effects: Increases in the abundance of Bacteroidales, Lactobacillales, Turicibacterales, and Anaeroplasmatales. […] Panels depicting the tibia uncalcified cartilage area (FIG. 15B), the number of chondrocytes in the tibia uncalcified cartilage (FIG. 15C), the number (FIG. 15D) and percentage (FIG. 15E) of Safranin-O positive (SafO^+) chondrocytes in the tibia uncalcified cartilage, the femur uncalcified cartilage area (FIG. 15F), and the number of chondrocytes in the femur uncalcified cartilage (FIG. 15G) in Sham and DMM chow fed mice supplemented with vehicle (Nutella) (Control DMM), hCol1 (P1 DMM) or hCol2 (P2 DMM) at 12 weeks after injury. FIGS. 16A-16E: (FIG. 16A) Microbial rDNA analysis was performed on fecal samples collected from lean fed mice supplemented with control Nutella, 38 mg/day hCol1, or 15 mg/day hCol2. Bars show relative microbial abundance in the indicated groups. […] Panels depicting the tibia cartilage area (FIG. 16B), the tibia uncalcified cartilage area (FIG. 16C), the number of chondrocytes in the tibia uncalcified cartilage (FIG. 16D), and the percentage (FIG. 16E) of Safranin-O positive (SafO^+) chondrocytes in the tibia uncalcified cartilage in Sham and DMM lean fed mice supplemented with vehicle (Nutella) (Control DMM), hCol1 (P1 DMM) or hCol2 (P2 DMM) at 12 weeks after injury. FIG. 17A-17H: (FIG. 17A) Microbial rDNA analysis was performed on fecal samples collected from high fat (HF) (60% of caloric energy from saturated fat) fed mice supplemented with control Nutella, 38 mg/day hCol1, or 15 mg/day hCol2 for 4 weeks. Bars show relative microbial abundance in the indicated groups. […] Panels depicting the tibia cartilage area (FIG. 17B), the tibia uncalcified cartilage area (FIG. 17C), the number of chondrocytes in the tibia uncalcified cartilage (FIG. 17D), the number of Safranin-O positive (SafO^+) chondrocytes in the tibia uncalcified cartilage (FIG. 17E), the femur uncalcified cartilage area (FIG. 17F), the number of chondrocytes in the femur uncalcified cartilage (FIG. 17G), and the number of Safranin-O positive (SafO^+) chondrocytes in the femur uncalcified cartilage (FIG. 17H) in Sham and DMM high fat diet-fed mice supplemented with vehicle (Nutella) (Control DMM), hCol1 (P1 DMM) or hCol2 (P2 DMM) at 3 weeks after injury. FIG. 19: hCol2 alters the gut microbiome. Mice fed chow or high fat diet for 3 months were supplemented daily with hCol2 (HFD+hCol2) or vehicle (Nutella) (HFD) for 4 weeks. Fecal samples were collected and microbial rDNA analysis was performed. A subset of bacterial species was altered in high fat diet-fed mice compared to chow fed mice, and hCol2 supplementation changed the gut microbiome of these high fat diet-fed mice. Numerous proinflammatory species, particularly Peptococcaceae rc4-4 sp, were reduced in hCol2-supplemented mice (top heat map). Conversely, several anti-inflammatory species were enhanced in hCol2-supplemented animals, including Bifidobacterium pseudolongum (bottom heat map). […]

## N[C@H]1C(O)O[C@H](CO)[C@@H](O)[C@@H]1O (some centres unmarked) [glucosamine]
Lean mice
  relative microbial abundance: Actinobacteria: 12.07%
  relative microbial abundance: Bacteroidetes: 13.4103%
  relative microbial abundance: Firmicutes: 72.6939%
  relative microbial abundance: Tenericutes: 1.1749%
  relative microbial abundance: Verrucomicrobia: 0.0119%
Lean mice, listed as Glucosamine
  relative microbial abundance: Actinobacteria: 12.7091%
Obese mice
  relative microbial abundance: Actinobacteria: 0.4928%
  relative microbial abundance: Bacteroidetes: 11.2335%
  relative microbial abundance: Firmicutes: 88.0274%
  relative microbial abundance: Proteobacteria: 0.0005%
  relative microbial abundance: Verrucomicrobia: 0.2458%
